{
  "source": "patent US20180200279A1",
  "about": "“INHIBITION OF HSV-1-ASSOCIATED CORNEAL NEOVASCULARIZATION USING INHIBITORS OF CYCLIN-DEPENDENT KINASE 9” (XAVIER UNIVERSITY OF LOUISIANA, priority 2014, published 2018)",
  "key": {"[1]": {"test_system": "HSV-1 17syn+ induced corneal neovascularization", "assay": "HSV-1 corneal neovascularization mouse model, slit-lamp examination score", "assay_type": "in vivo, Balb/c mice", "settings": "day 25 post infection; drops 4 times daily for 14 days; 1% TFT, 0.01% flavopiridol, 0.1% DRB; n=10", "procedure": "Corneal neovascularization was determined in a masked fashion by slit lamp analysis on days 2, 4, 7, 9, 11, 14, 18, and 25 post-infection (PI) with 5×10^5 PFU/eye of HSV-1 17syn+ using the formula A=(C×0.4×L×n)/2 where C=clock hours of neovascularization; 30° arc is 1 (360° circle with a total of 12); L is the length of the longest neovessel, and A is the area of neovascularization.\nAll experimental procedures were performed in accordance with the ARVO Resolution for the Use of Animals in Ophthalmic and Vision Research and were approved by the Xavier University Animal Care and Use Committee. Female 20 g Balb/c mice were obtained from Charles River Laboratories. Mice were allowed to equilibrate to their surroundings for 2 weeks and then were anesthetized by intramuscular administration of xylazine (6.6 mg/kg of body weight) and ketamine (100 mg/kg of body weight). The corneas were mildly scarified in a 2×2 cross-hatch pattern and each cornea was inoculated with 5×10^5 PFU of strain HSV 17syn+. […] Average neovascularization/eye was scored using the formula A=(C×0.4×L×π)/2 where C=clock hours of neovascularization; 30° arc is 1 (360° circle with a total of 12); L is the length of the longest neovessel, and A is the area of neovascularization. Students scored (by eye) the animals on the days indicated in a masked fashion using the slit-lamp, and images representative of each group were taken. Clinical scores based on epiphora, inflammation and discharge were calculated where 0=no manifestations, +1=slight manifestations, +2=moderate manifestations, and +3=severe manifestations. […] Ex ovo chick embryo chorioallantoic membrane collagen angiogenesis assays were performed using methods as previously described (Deryugina E I and Quigley J P. Chapter 2. Chick embryo chorioallantoic membrane models to quantify angiogenesis induced by inflammatory and tumor cells or purified effector molecules. Methods Enzymol. 444:21-41. 2008). […]\nThis was assessed with the dose and frequency that was used in the chemotherapeutic study of HSV-1 corneal neovascularization. […]"}, "HSV-1": {"test_system": "HSV-1", "assay": "In vitro viral inhibition (plaque) assay in CV-1 cells", "assay_type": "cell-based", "procedure": "Numbers of plaque-forming units (PFU) were determined in a standard plaque assay procedure using CV-1 cells.\nThe HSV-1 strain employed was 17 syn+. Before inoculation, numbers of plaque-forming units (PFU) were determined in a standard plaque assay procedure using CV-1 cells. Pooled primary human umbilical vein endothelial cells (HUVEC) were obtained from Lonza (Basel, Switzerland) and were cultured in Medium 199 (Life Technologies, Carlsbad, Calif.) supplemented with 20% heat-inactivated FBS, penicillin G (100 U/ml), streptomycin ([…]), 2 mM L-glutamine and 1:100 endothelial cell growth supplement (ECGS, BD Biosciences, Bedford, Mass.) on tissue culture plates coated with 0.2% gelatin up to passage 6. Cells were sub-passaged or harvested when they reached ˜80% confluence. For periods of serum-deprivation, HUVEC were incubated for 4 or 16 hours in serum-starvation medium (SSM) containing Medium 199 without phenol red or ECGS but containing 0.5% FBS unless otherwise indicated. In vitro viral inhibition assays with CV-1 cells were performed as previously described (Gong E Y. Methods for screening and profiling inhibitors of herpes simplex viruses. Methods Mol Biol. 1030:303-313. 2013)."}, "HSV-1 17syn+": {"test_system": "HSV-1 17syn+", "assay": "Real-time PCR of HSV-1 DNA on ocular swabs of infected mice", "assay_type": "in vivo, Balb/c mice", "settings": "day 25 post infection; 1% TFT, 0.01% flavopiridol, 0.1% DRB drops; n=10", "procedure": "SYBR Green semi-quantitative real-time PCR was performed on DNA samples eluted from swabs taken from mouse eyes on days 2, 4, 7, 9, 11, 14, 18 and 25 post infection with 5×10^5 PFU/eye HSV-1 17syn+ using primers specific for HSV-1 DNA polymerase.\nAll experimental procedures were performed in accordance with the ARVO Resolution for the Use of Animals in Ophthalmic and Vision Research and were approved by the Xavier University Animal Care and Use Committee. Female 20 g Balb/c mice were obtained from Charles River Laboratories. Mice were allowed to equilibrate to their surroundings for 2 weeks and then were anesthetized by intramuscular administration of xylazine (6.6 mg/kg of body weight) and ketamine (100 mg/kg of body weight). The corneas were mildly scarified in a 2×2 cross-hatch pattern and each cornea was inoculated with 5×10^5 PFU of strain HSV 17syn+. […] DNA was collected by swabbing the eyes with filter paper, and the eyes were examined with a slit-lamp on PI days 2, 4, 7, 9, 11, 14, 18 and 25. Average neovascularization/eye was scored using the formula A=(C×0.4×L×π)/2 where C=clock hours of neovascularization; 30° arc is 1 (360° circle with a total of 12); L is the length of the longest neovessel, and A is the area of neovascularization. Students scored (by eye) the animals on the days indicated in a masked fashion using the slit-lamp, and images representative of each group were taken. Clinical scores based on epiphora, inflammation and discharge were calculated where 0=no manifestations, +1=slight manifestations, +2=moderate manifestations, and +3=severe manifestations. […] Ex ovo chick embryo chorioallantoic membrane collagen angiogenesis assays were performed using methods as previously described (Deryugina E I and Quigley J P. Chapter 2. Chick embryo chorioallantoic membrane models to quantify angiogenesis induced by inflammatory and tumor cells or purified effector molecules. Methods Enzymol. 444:21-41. 2008). […]"}, "HUVEC": {"test_system": "HUVEC", "assay": "Global transcription, BrU incorporation into RNA by flow cytometry", "assay_type": "cell-based, human", "settings": "serum-starved, PMA-treated HUVEC", "description": "Vein endothelial cells (VEC) were activated with phorbol myristate acetate (PMA) and incubated with membrane-permeable 5-bromouridine (BrU) that incorporates into RNA transcribed during the incubation period. A commercially available antibody against 5-bromo-deoxy-uridine was then used to quantify BrU-containing RNA. Cells were analyzed by immunofluorescence staining (not shown) and by flow cytometry for the presence of incorporated BrU to quantify the level of global transcription. […] Additional controls include no antibody and no BrU.\nTo determine whether FP blocked transcription globally at concentrations at which it reduces angiogenesis in vitro, HUVEC were activated with phorbol myristate acetate (PMA) and incubated with membrane-permeable 5-bromouridine (BrU) that incorporates into RNA transcribed during the incubation period. A commercially available antibody against 5-bromo-deoxy-uridine was then used to quantify BrU-containing RNA. Cells were analyzed by immunofluorescence staining (not shown) and by flow cytometry for the presence of incorporated BrU to quantify the level of global transcription.\nAdditional controls include no antibody (-Ab) and no BrU (-BrU) (FIG. 5A)."}},
  "data": [
    {"compound": "CN1CC[C@H](c2c(O)cc(O)c3c(=O)cc(-c4ccccc4Cl)oc23)[C@H](O)C1", "note": "[flavopiridol]", "values": [
      {"measurement": "slit-lamp examination (SLE) score of corneal neovascularization", "setting": "[1]", "result": "0.039±0.176"},
      {"measurement": "concentration at which HSV-1 replication was significantly inhibited", "setting": "HSV-1", "result": 250, "unit": "nM"},
      {"measurement": "IC50", "setting": "HSV-1; Human alphaherpesvirus 1, read-out: average IC50 of HSV-1 replication", "result": 100, "unit": "nM"},
      {"measurement": "quantitative real-time PCR score (HSV-1 DNA) on ocular swabs", "setting": "HSV-1 17syn+", "result": "0.039±0.176"},
      {"measurement": "BrU incorporation into RNA (total cellular transcription)", "setting": "HUVEC; 50 nM-300 nM FP", "result": "only slightly reduced"},
      {"measurement": "BrU incorporation into RNA (total cellular transcription)", "setting": "HUVEC; 600 nM-1 μM FP", "result": "significantly (p<0.05 compared with untreated cells) reduced BrU incorporation into RNA"}
    ]}
  ]
}
